The source of these data is PMC11939078, “TAK-994 mechanistic investigation into drug-induced liver injury” (Toxicological Sciences, 2025).

For one series, the system named is HepG2 cells. The experiment in a line: HepG2 Glu/Gal 24-h cytotoxicity (mitochondrial toxicity). The class given is cell-based, human. Conditions: glucose or galactose medium. The protocol: Cytotoxicity of TAK-994 was evaluated in glucose or galactose medium after 24 h and in glucose medium after 72 h in HepG2 cells, with cryopreserved HepG2 cells thawed and seeded onto assay plates at 5,000 cells/well in glucose or galactose medium for the 24-h assay and at 2,500 cells/well in glucose medium for the 72-h assay. After ∼24 h of incubation at 37 °C in 5% CO2, the cells were incubated with test solutions under the same conditions for 24 h for the plate with 5,000 cells/well or 72 h for the plate with 2,500 cells/well. Cytotoxicity of TAK-994 was also assessed using HepG2 cells with CYP3A4 overexpression using a lentivirus vector. HepG2/CYP3A4 cells were incubated in media containing TAK-994 (0.09 to 200 μM), positive control aflatoxin B1 (0.04 to 80 μM), or 1.0% DMSO (negative control). In both cytotoxicity assays, adenosine triphosphate (ATP) content was assessed after incubation using a commercial luminescence assay (CellTiter-Glo; Promega Co., Ltd, WI, United States).
HepG2 cells (American Type Culture Collection [ATCC, VA, USA]) were acclimated to Dulbecco's Modified Eagle Medium (DMEM; Thermo Fisher Scientific, MA, USA) with either high glucose or high galactose and containing 10% FBS for 1 week then cryopreserved. […] After the incubation, CellTiter-Glo® (Promega Co., Ltd., WI, USA) was added to the assay plates, cells were incubated for 30 minutes, and luminescence was recorded to measure the ATP content using an EnVision plate reader (PerkinElmer Co., Ltd., MA, USA). The test compound TAK-994 was evaluated at concentrations of 0.046, 0.14, 0.41, 1.2, 3.7, 11, 33, and 100 μM. Positive controls rotenone and staurosporine were purchased from FUJIFILM Wako Pure Chemical Corporation (Osaka, Japan) and evaluated at concentrations of 0.046, 0.14, 0.41, 1.2, 3.7, 11, 33, and 100 μM in DMSO (rotenone) or 0.0046, 0.014, 0.041, 0.12, 0.37, 1.1 , 3.3, and 10 μM in DMSO (staurosporine). […]

Another series deals with human hepatocytes. Description: Covalent binding of [14C]TAK-994 in human hepatocytes and CVB burden. The series is classed as in vitro ADME. Conditions: for Daily CVB burden: most conservative values based on internal assay data (Table 1); for CVB burden: fa and fm assumed 1 (Table 3). The protocol:
Covalent binding of TAK-994 was assessed by incubating [^14C]TAK-994 with human hepatocytes. The CVB level was determined by relating the total amount of radioactivity (pmol equivalent) to the protein concentration in each sample. Assessment of TAK-994 inhibition potential for the bile salt efflux pump (BSEP) was assessed by incubating [^3H(G)]taurocholic acid with TAK-994 (0 to 100 μM/l) or cyclosporin A after addition of 10 μl of membrane vesicles expressing BSEP or control membrane vesicles. Scintillation counts were assessed in two 5-min cycles.
[^14C ]TAK-994 (10 μmol/L, supplied by Takeda Pharmaceutical Company Limited, Japan) was incubated with human hepatocytes (LIVERPOOL® 10-donor mixed gender, pooled, cryopreserved human hepatocytes [Lot No. ZOL, BioIVT]) as suspension culture in 24-well plates at 37°C under 5% CO2, humidified, for 0 or 2 hours. Seeding density of the cells was 3.0 × 10^5 viable cells/500 μL/well. A total of 3 replicates were assessed.
The covalent-binding (CVB) level was determined by relating the total amount of radioactivity (pmol equivalent) to the protein concentration in each sample. To obtain the net covalent-binding (CVBnet), the average result of the “back-added” samples (CVBback) was subtracted from the average result of the incubated samples (CVBinc). For the determination of [^14C ]TAK-994 turnover in the incubation, part of the samples were analyzed by high-performance liquid chromatography with an online flow scintillation analyzer.
Turnover = 1 − [percentage of TAK-994 relative to the total radioactivity at 2 hours] [percentage of TAK-994 relative to the total radioactivity at 0 hour]
fcvb = CVB (pmol/mg protein) × [mean protein concentration (mg/well)] turnover × [substrate concentration (pmol/well)]
CVB burden (mg) = D × fa × fm × fcvb
D was set to 60, 180, 240, and 360 mg. Both fa and fm were set to a value of 1 (Thompson et al. 2012).

Series [1] deals with human liver microtissues + FFA. Description: Hepatotoxicity in steatosis liver model (free fatty acids). The series is classed as cell-based. Conditions: 14 days. The protocol:
Mono and co-culture model cells were exposed to TAK-994 (0.1, 0.3, 1, 3.16, 10, 31.6, or 100 μM in 0.5% DMSO) for 14 days (TAK-994 administered on Days 0, 5, and 9). The cell culture medium was supplemented with free fatty acids of 100 μM of Oleic acid and 66 μM of Palmitic acid. Six replicates were tested for each condition. The vehicle control was 0.5% DMSO, and the positive control was chlorpromazine (0.1, 0.3, 1, 3.16, 10, 31.6, or 100 μM in DMSO). Cellular ATP content was measured in the cell lysate on Day 14 of treatment. LDH release was measured in the cell supernatant on Days 5, 9, and 14 and normalized to lysed controls. Cellular triglyceride content was measured in the microtissues on Day 14.
(§1) Intracellular ATP content in model lysates was measured with the CellTiter-Glo® 2.0 Cell Viability Assay (Catalogue No. G9243, Promega). The Bioluminescent LDH Release Toxicity Assay Kit (Catalogue No. J2380, Promega) was used to assess extracellular LDH release and normalized to lysed controls. ATP, LDH, GSH, and triglycerides were measured according to internal technical operating procedures.

The subject of the next series is human liver microtissues. Description: LPS-sensitization assay in liver microtissues. The class given is cell-based. Particulars: for IC50: cellular ATP on Day 14. The protocol: Six replicates were tested for each condition. […] Cellular ATP content was measured in the cell lysate on Day 14 of treatment. LDH release was measured on Days 5, 9, and 14 in the cell supernatant and normalized to lysed controls.
as §1

Another series deals with patients with narcolepsy. Description: Phase II studies TAK-994-1501 and TAK-994-1504.

As a reminder, the IC50 is the midpoint of a concentration-inhibition curve.

Like-named read-outs stand apart in the source and are kept apart here.

On to `CC(C)(O)C(=O)N1CC[C@H](NS(C)(=O)=O)[C@@H]1Cc1cccc(-c2cc(F)cc(F)c2)c1F.CC(C)(O)C(=O)N1CC[C@H](NS(C)(=O)=O)[C@@H]1Cc1cccc(-c2cc(F)cc(F)c2)c1F.O.O.O` [TAK-994], for which the IC50 was more than 100 µM in the series on HepG2 cells; more than 100 µM in the series with human liver microtissues (read-out: IC50, liver microtissues + LPS (Fig. 5A)); more than 100 µM with human liver microtissues (read-out: IC50, liver microtissues without LPS (Fig. 5A)). Further, the “Daily CVB burden” value with human hepatocytes (90 mg BID) turned out to be 25.1 mg; with human hepatocytes (180 mg BID), 50.2 mg. Moreover, the CVB level in the series with human hepatocytes (2-h incubation of human hepatocytes with TAK-994 at 10 μM) is listed as 389.2 pmol equivalent/mg protein. Also, the CVB burden in the series with human hepatocytes (daily dose 60 mg (30 BID)) was 2.94 mg; in the series with human hepatocytes (daily dose 180 mg (90 BID)), 8.82 mg; with human hepatocytes (daily dose 240 mg (120 BID)) it was 11.8 mg; in the series with human hepatocytes (daily dose 360 mg (180 BID)), 17.6 mg. Moreover, the “f CVB (fraction of metabolism leading to covalent binding)” value in the series on human hepatocytes (human hepatocytes, 10 μM, 2 h) is listed as 0.0490. Besides, in series [1], the “sensitization of liver microtissues by free fatty acids” value is recorded as “no increased sensitivity”. In addition, the “sensitization of liver microtissues by LPS (innate immune activation)” value in the series on human liver microtissues is “no direct innate immune-mediated toxicity was observed”. In addition, the “subjects who met discontinuation criteria due to increases in liver transaminases” value in the series with patients with narcolepsy (90- and 180-mg BID treatment groups) amounted to 8. In addition, the “cases that satisfied Hy's Law criteria, diagnosed as DILI” value in the series on patients with narcolepsy (90 and 180 mg dose groups) is recorded as 3.
